Entries after “also recorded” stand apart in the source; their conditions may differ.
Tests used:
A-549 cell line = test: MTT cytotoxicity assay, lung carcinoma; assay type: cell-based; conditions: Homo sapiens, A549; for inhibition at 100 µM: A-549, at 100 µM
Experimental: (§1) Human colon carcinoma (HCT-116 cell line), human lung carcinoma (A-549), human breast carcinoma (MCF-7 cell line) and human skin normal cell line (BJ-1) were obtained from Karolinska Center, Department of Oncology and Pathology, Karolinska Institute and Hospital, Stockholm, Sweden. IC50 values were performed using SPSS computer program (SPSS for windows, statistical analysis software package/version 9/1989 SPSS Inc., Chicago, IL).
(§2) The procedure was done in laminar air flow cabinet bio safety class II level. Culturing and sub culturing were carried out according to Thabrew et al.[32]. Doxorubicin was used as a positive control. DMSO used as negative control. Cell Viability Assay was done according to Selim et al.[33] as described by Mosmann et al.[34]. The cells were seeded at concentration of 10 × 10^3 cells per well in case of MCF-7, 20 × 10^3 cells/well in case of HCT-116 cell lines using 96-well plates at 37 °C. After 48-h incubation, the medium was aspirated and 40 μl MTT salt (2.5 mg/ml) were added and further incubated for 4 h. About 200 μl 10% sodium dodecyl sulphate (SDS) was added. The absorbance was measured at 595 nm.

HCT-116 cell line = test: MTT cytotoxicity assay, colon carcinoma; assay type: cell-based; conditions: Homo sapiens; for inhibition at 100 µM: HCT-116, at 100 µM; for IC50: HCT-116, MTT, 48-h incubation, read-out: IC50 (mean ± SD)
Experimental: as §1, §2

MCF-7 cell line = test: MTT cytotoxicity assay, breast carcinoma; assay type: cell-based; conditions: Homo sapiens, MCF7; for inhibition at 100 µM: MCF-7, at 100 µM
Experimental: as §1, §2

EGFR = EGFR (Homo sapiens, UniProt P00533); test: In vitro kinase inhibition ELISA assay; assay type: biochemical; conditions: read-out: IC50 (mean ± SD)
Chain of EGFR (P00533 25-1210): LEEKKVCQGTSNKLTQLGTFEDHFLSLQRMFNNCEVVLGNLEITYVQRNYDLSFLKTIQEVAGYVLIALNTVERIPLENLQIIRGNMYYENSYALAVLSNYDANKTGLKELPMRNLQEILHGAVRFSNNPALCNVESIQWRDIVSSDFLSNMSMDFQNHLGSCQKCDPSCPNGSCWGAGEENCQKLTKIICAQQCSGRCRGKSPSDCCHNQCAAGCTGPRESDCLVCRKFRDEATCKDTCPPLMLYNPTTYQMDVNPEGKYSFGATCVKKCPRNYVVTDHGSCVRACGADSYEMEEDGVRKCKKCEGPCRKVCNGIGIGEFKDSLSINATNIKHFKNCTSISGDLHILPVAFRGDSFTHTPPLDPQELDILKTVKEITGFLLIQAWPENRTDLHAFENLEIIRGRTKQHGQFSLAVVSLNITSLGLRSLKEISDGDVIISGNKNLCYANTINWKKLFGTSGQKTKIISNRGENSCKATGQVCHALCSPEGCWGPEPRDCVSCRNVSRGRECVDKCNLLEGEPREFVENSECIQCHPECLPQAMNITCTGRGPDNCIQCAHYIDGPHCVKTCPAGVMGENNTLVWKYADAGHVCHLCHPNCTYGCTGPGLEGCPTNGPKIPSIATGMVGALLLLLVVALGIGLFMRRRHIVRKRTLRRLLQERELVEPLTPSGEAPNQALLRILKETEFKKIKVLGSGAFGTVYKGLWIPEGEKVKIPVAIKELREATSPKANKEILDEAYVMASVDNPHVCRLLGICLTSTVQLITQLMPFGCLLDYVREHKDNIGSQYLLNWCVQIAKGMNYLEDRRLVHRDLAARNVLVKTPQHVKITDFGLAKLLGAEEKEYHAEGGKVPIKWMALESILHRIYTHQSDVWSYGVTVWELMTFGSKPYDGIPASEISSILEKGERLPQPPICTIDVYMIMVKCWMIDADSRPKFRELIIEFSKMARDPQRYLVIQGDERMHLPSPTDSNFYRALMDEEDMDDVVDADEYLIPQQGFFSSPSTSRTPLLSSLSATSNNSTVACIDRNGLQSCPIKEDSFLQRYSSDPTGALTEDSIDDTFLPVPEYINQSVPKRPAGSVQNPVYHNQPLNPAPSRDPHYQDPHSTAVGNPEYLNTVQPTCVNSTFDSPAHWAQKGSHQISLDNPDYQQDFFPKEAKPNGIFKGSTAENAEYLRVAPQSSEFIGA
Experimental: The in vitro enzyme inhibition assessment for compound 5 was performed at confirmatory diagnostic unit, Vacsera, Egypt.

BCL-2 = BCL-2 level ELISA in MCF-7 cells; assay type: cell-based, human; conditions: compound at IC50 for 24 h, compared to control
Experimental: BCL-2 in the samples and standards were estimated according to Barbareschi et al.. A biotin-conjugated antibody was added followed by streptavidin-HRP. The reaction is then terminated by addition of acid and absorbance was measured at 450 nm.

[1] = system: BJ-1 normal skin fibroblasts cell line; test: MTT cytotoxicity on normal skin cell line; assay type: cell-based, human; conditions: BJ-1 normal skin cells, at 100 µM
Experimental: as §1, §2

VEGFR-2 = VEGFR-2 (Homo sapiens, UniProt P35968); test: In vitro kinase inhibition ELISA assay; assay type: biochemical; conditions: VEGFR-2 kinase, read-out: IC50 (mean ± SD)
Chain of VEGFR-2 (P35968 20-1356): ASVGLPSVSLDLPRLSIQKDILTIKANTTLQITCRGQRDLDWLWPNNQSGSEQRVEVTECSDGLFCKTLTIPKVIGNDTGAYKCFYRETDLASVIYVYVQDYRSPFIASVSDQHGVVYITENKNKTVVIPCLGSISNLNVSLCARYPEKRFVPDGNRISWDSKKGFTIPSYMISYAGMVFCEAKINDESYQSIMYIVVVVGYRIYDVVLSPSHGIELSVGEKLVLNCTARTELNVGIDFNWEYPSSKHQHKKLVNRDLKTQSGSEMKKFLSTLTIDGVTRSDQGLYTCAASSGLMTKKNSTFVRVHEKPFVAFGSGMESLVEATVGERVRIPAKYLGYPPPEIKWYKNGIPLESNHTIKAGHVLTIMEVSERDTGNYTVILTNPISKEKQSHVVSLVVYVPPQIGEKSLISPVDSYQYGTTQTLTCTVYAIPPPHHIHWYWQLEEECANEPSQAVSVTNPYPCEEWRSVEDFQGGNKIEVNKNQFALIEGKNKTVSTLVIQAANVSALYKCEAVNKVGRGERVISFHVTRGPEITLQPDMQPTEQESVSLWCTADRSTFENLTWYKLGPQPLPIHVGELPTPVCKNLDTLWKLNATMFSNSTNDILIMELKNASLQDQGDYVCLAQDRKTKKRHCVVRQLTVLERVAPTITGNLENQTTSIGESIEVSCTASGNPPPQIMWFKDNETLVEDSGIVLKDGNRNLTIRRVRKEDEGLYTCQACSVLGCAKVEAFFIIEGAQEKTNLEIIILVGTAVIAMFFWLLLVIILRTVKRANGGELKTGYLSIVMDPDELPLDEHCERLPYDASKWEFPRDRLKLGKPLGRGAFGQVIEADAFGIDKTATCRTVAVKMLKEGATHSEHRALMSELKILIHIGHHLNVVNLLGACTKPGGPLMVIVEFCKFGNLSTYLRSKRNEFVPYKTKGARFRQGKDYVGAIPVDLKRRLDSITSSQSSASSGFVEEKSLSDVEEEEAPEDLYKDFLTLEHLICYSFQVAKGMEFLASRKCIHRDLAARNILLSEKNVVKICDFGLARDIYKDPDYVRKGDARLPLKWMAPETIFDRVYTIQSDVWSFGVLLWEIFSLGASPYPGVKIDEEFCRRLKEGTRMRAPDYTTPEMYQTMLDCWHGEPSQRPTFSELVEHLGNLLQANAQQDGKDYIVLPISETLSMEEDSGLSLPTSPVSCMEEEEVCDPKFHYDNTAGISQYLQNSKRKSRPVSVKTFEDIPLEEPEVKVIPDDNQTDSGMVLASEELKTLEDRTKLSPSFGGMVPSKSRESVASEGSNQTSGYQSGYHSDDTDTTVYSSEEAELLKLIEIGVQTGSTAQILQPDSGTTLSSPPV

tubulin beta (TUBb) = test: ELISA kit for tubulin beta (TUBb) in MCF-7 cells; assay type: cell-based, human; conditions: in comparison with colchicine
Experimental: MCF-7 cells were inoculated at concentration 1.2–1.8 × 10,000 cells/well using DMEM (supplemented with 10% FBS and 1% penicillin–streptomycin). Tested compound added for 18–24 h before the enzyme assay for Tubulin. Avidin conjugated to HRP is added to each microplate well and incubated. […] Sulphuric acid solution added to terminate enzymatic reaction. Colour change is measured spectrophotometrically at a wavelength of 450 nm ± 10 nm[39].

CASP-7 = test: Human caspase-7 (CASP-7) estimation ELISA in MCF-7 cells; assay type: cell-based
Experimental: The micro ELISA plate provided in this kit pre-coated with CASP7-specific antibody. A biotinylated CASP7 antibody and Avidin–HRP conjugate was added. Aspire the excess components. The substrate solution was added wells that contain CASP7, biotinylated detection antibody and Avidin–HRP conjugate will appear blue in colour. The colour turns yellow followed the addition of sulphuric acid solution. The optical density (OD) was measured at a wavelength of 450 nm ± 2 nm[38].

CDK-2 = CDK-2 (Homo sapiens, UniProt P24941); test: In vitro kinase inhibition ELISA assay; assay type: biochemical; conditions: CDK-2 kinase, read-out: IC50 (mean ± SD)
p53 = p53 level ELISA in MCF-7 cells; assay type: cell-based, human; conditions: compound at IC50 for 24 h, compared to control
Experimental: Human p53 present in the sample or standard binds to antibodies adsorbed to the microwells. A biotin-conjugated is added. After incubation and dispense of unbound biotin-conjugated streptavidin HRP is added. The reaction is terminated by addition of acid and absorbance is measured at 450 nm[37].

Bax = Bax protein level ELISA in MCF-7 cells; assay type: cell-based, human; conditions: compound at IC50 for 24 h
Experimental: Bax protein levels were evaluated according to Onur et al.. Monoclonal antibody specific to Bax captured on the plate is added. After incubation, Strep avid in conjugated to Horseradish peroxidase (HRP) is added. The reaction is terminated by the addition of acid and optical density of the colour produced measured at 450 nm.

c-kit = c-kit (Homo sapiens, UniProt P10721); test: In vitro kinase inhibition ELISA assay; assay type: biochemical; conditions: read-out: IC50 (mean ± SD)
Chain of c-kit (P10721 26-976): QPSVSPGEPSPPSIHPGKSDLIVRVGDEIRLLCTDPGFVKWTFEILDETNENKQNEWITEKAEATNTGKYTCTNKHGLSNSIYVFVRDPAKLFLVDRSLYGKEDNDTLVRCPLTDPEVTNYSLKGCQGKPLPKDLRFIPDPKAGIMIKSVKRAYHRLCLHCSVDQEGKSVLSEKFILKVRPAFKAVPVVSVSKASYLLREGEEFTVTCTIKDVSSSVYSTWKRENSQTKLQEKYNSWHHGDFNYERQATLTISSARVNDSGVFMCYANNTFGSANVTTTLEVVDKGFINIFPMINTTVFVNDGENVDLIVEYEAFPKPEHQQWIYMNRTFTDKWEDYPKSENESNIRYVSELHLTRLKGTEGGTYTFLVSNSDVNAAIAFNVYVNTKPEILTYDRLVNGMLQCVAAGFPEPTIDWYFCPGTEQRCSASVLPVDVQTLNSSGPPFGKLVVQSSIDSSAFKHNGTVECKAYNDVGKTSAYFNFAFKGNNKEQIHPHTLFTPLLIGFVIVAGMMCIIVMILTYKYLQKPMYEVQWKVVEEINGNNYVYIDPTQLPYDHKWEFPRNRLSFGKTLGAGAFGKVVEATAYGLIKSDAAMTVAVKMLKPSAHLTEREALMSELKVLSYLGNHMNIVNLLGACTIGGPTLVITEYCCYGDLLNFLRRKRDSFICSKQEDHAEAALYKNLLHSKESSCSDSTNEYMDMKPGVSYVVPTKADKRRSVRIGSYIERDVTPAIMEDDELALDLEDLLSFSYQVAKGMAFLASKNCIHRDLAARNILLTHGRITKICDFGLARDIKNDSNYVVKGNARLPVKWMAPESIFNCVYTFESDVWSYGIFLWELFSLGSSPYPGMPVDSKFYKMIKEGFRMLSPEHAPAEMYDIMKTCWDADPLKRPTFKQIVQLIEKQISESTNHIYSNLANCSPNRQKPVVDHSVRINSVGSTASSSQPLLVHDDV

[2] = system: HCT-116, A-549 and MCF-7 cell lines; test: Preliminary cytotoxicity screen on the three tumour cell lines (MTT); assay type: cell-based, human; conditions: for inhibition at 100 µM: Homo sapiens, range over HCT-116, A-549, MCF-7, read-out: % of inhibition towards the three tested cancer cell lines; for cytotoxic activity (in words, SAR): HCT-116, A-549, MCF-7, compared with related derivatives
Experimental: as §1, §2

MCF-7 cells = test: DNA fragmentation by DPA assay; assay type: cell-based, human
Experimental: DNA fragmentation of the cells was assayed, as previously described[40]^,[41]. Briefly, the cells were lysed with 20 mM EDTA, 0.5% (v/v) Triton X-100, and […] Tris (pH 8.0) for 15 min on ice. The cells were then centrifuged for 20 min, at 27,000×g, to separate intact chromatin from DNA fragments. The amount of DNA was measured by using a diphenylamine reagent. The optical density is measured at 600 nm.

SMILES: COc1ccc(C2SCC(=O)N2NC(=O)C(C)NC(=O)c2cccc(C(=O)NC(C)C(=O)NN3C(=O)CSC3c3ccc(OC)cc3)c2)cc1 (centres unmarked)
- melting point: 242 to 244 °C

SMILES: CC(NC(=O)c1cccc(C(=O)NC(C)C(=O)NN)c1)C(=O)NN (centres unmarked) [Compound 4, N^1,N^3-bis-(1-hydrazinyl-1-oxopropan-2-yl) isophthalamide]
- inhibition at 100 µM (A-549 cell line): 0.9%
- inhibition at 100 µM (HCT-116 cell line): 2.3%
- inhibition at 100 µM (MCF-7 cell line): 1.8%
- melting point: 232 to 234 °C

SMILES: CC(NC(=O)c1cccc(C(=O)NC(C)C(=O)N/N=C2/C(=O)Nc3ccccc32)c1)C(=O)N/N=C1\C(=O)Nc2ccccc21 (centres unmarked) [Compound 5, N^1-(1-oxo-1-(-2-(2-oxoindolin-3-ylidene) hydrazinyl)propan-2-yl)-N^3-(1-oxo-1-(-2-(2-oxoindolin-3-ylidene) hydrazinyl)propan-2-yl) isophthalamide]
- IC50 (EGFR): 780 ± 1250 nM
- BCL-2 expression level (BCL-2): down-expression
- % inhibition (cytotoxicity on normal cells) [1]: 32.6%
- IC50 (HCT-116 cell line): 14 nM
- IC50 (VEGFR-2): 3170 ± 1000 nM
- effect on microtubule-polymer mass (tubulin polymerization, TubB) (tubulin beta (TUBb)): moderate effect
- level of active CASP-7 (CASP-7): significant increase
- IC50 (CDK-2): 6240 ± 1210 nM
- p53 expression level (p53): significant up-expression
- Bax/BCL-2 ratio (Bax): significant elevation; also recorded: significantly elevated
- Bax expression level (Bax; compared to control): significant up-expression
- melting point: 271 to 273 °C
- IC50 (c-kit): 2850 ± 40 nM
- inhibition at 100 µM [2]: 72.5 to 98.3%
- % of DNA fragmentation (MCF-7 cells): remarkable % of DNA fragmentation

SMILES: CC(NC(=O)c1cccc(C(=O)NC(C)C(=O)NN=C2C(=O)Nc3ccc(Cl)cc32)c1)C(=O)NN=C1C(=O)Nc2ccc(Cl)cc21 (centres unmarked) [Compound 6, N^1-(1-(-2-(5-chloro-2-oxoindolin-3-ylidene)hydrazinyl)-1-oxopropan-2-yl)-N^3-(1-(-2-(5-chloro-2-oxoindolin-3-ylidene) hydrazinyl)-1-oxopropan-2-yl)isophthalamide]
- inhibition at 100 µM (A-549 cell line): 48.4%
- inhibition at 100 µM (HCT-116 cell line): 33.1%
- inhibition at 100 µM (MCF-7 cell line): 19.6%
- melting point: 271 to 273 °C

SMILES: CC(NC(=O)c1cccc(C(=O)NC(C)c2n[nH]c(=S)o2)c1)c1n[nH]c(=S)o1 (centres unmarked) [Compound 7, N^1,N^3-bis (1-(5-thioxo-4,5-dihydro-1,3,4-oxadiazol-2-yl)ethyl) isophthalamide]
- inhibition at 100 µM (MCF-7 cell line): 77.5%
- melting point: 132 to 134 °C
- inhibition at 100 µM [2]: 72.5 to 98.3%

SMILES: CC(NC(=O)c1cccc(C(=O)NC(C)C(=O)NN=C[C@H](O)[C@@H](O)[C@H](O)CO)c1)C(=O)NN=C[C@H](O)[C@@H](O)[C@H](O)CO (stereo partly drawn) [Compound 8, N^1,N^3-bis (1-oxo-1-(-2-((2S, 3 R, 4 R)-2,3,4,5-tetrahydroxypentylidene) hydrazinyl)propan-2-yl) isophthalamide]
- cytotoxic activity (in words, SAR) [2]: dramatic drop in the anticancer effect

SMILES: CC(NC(=O)c1cccc(C(=O)NC(C)C(=O)NN=C[C@@H](O)[C@H](O)[C@H](O)CO)c1)C(=O)NN=C[C@@H](O)[C@H](O)[C@H](O)CO (stereo partly drawn) [Compound 9, N^1,N^3-bis (1-oxo-1-(-2-((2R, 3S, 4R)-2,3,4,5-tetrahydroxypentylidene) hydrazinyl)propan-2-yl) isophthalamide]
- cytotoxic activity (in words, SAR) [2]: dramatic drop in the anticancer effect

SMILES: CC(NC(=O)c1cccc(C(=O)NC(C)C(=O)NN=Cc2ccc(Cl)cc2)c1)C(=O)NN=Cc1ccc(Cl)cc1 (centres unmarked) [Compound 10, N^1,N^3-bis-(1-(-2-(4-chlorobenzylidene) hydrazinyl)-1-oxopropan-2-yl) isophthalamide]
- melting point: 296 to 298 °C
- cytotoxic activity (in words, SAR) [2]: variable and noticeable increase in the cytotoxic activity

SMILES: CC(NC(=O)c1cccc(C(=O)NC(C)C(=O)NN=Cc2ccc(F)cc2)c1)C(=O)NN=Cc1ccc(F)cc1 (centres unmarked) [Compound 11, N^1,N^3-bis-(1-(-2-(4-fluorobenzylidene) hydrazinyl)-1-oxopropan-2-yl) isophthalamide]
- melting point: 285 to 287 °C
- cytotoxic activity (in words, SAR) [2]: variable and noticeable increase in the cytotoxic activity

SMILES: COc1ccc(C=NNC(=O)C(C)NC(=O)c2cccc(C(=O)NC(C)C(=O)NN=Cc3ccc(OC)cc3)c2)cc1 (centres unmarked) [Compound 12, N^1,N^3-bis-(1-(-2-(4-methoxybenzylidene) hydrazinyl)-1-oxopropan-2-yl) isophthalamide]
- IC50 (MCF-7 cell line; MCF-7, MTT, 48-h incubation, read-out: IC50 (mean ± SD)): 51 nM
- melting point: 273 to 275 °C
- cytotoxic activity (in words, SAR) [2]: variable and noticeable increase in the cytotoxic activity
- inhibition at 100 µM [2]: 72.5 to 98.3%

SMILES: COc1ccc(C=NNC(=O)C(C)NC(=O)c2cccc(C(=O)NC(C)C(=O)NN=Cc3ccc(OC)c(OC)c3)c2)cc1OC (centres unmarked) [Compound 13, N^1,N^3-bis-(1-(-2-(3,4-dimethoxybenzylidene) hydrazinyl)-1-oxopropan-2-yl) isophthalamide]
- melting point: 277 to 279 °C
- cytotoxic activity (in words, SAR) [2]: reduction in the activity

SMILES: CC(NC(=O)c1cccc(C(=O)NC(C)C(=O)NN2C(=O)CSC2c2ccc(Cl)cc2)c1)C(=O)NN1C(=O)CSC1c1ccc(Cl)cc1 (centres unmarked) [Compound 14, N^1,N^3-bis-(1-(2-(4-chlorophenyl)-4-oxothiazolidin-3-ylamino)-1-oxopropan-2-yl) isophthalamide]
- IC50 (A-549 cell line; A-549, MTT, read-out: IC50 (mean ± SD)): 41 nM
- melting point: 218 to 220 °C
- inhibition at 100 µM [2]: 72.5 to 98.3%

SMILES: CC(NC(=O)c1cccc(C(=O)NC(C)C(=O)NN2C(=O)CSC2c2ccc(F)cc2)c1)C(=O)NN1C(=O)CSC1c1ccc(F)cc1 (centres unmarked) [Compound 15, N^1,N^3-bis-(1-(2-(4-fluorophenyl)-4-oxothiazolidin-3-ylamino)-1-oxopropan-2-yl) isophthalamide]
- melting point: 168 to 170 °C

SMILES: COc1cccc2c1C(=O)c1c(O)c3c(c(O)c1C2=O)C[C@@](O)(C(=O)CO)C[C@@H]3O[C@H]1C[C@H](N)[C@H](O)[C@H](C)O1 [Doxorubicin, reference compound]
- IC50 (HCT-116 cell line): 65 nM

From publication PMC6691786, “In vitro anticancer potentiality and molecular modelling study of novel amino acid derivatives based on N^1,N^3-bis-(1-hydrazinyl-1-oxopropan-2-yl) isophthalamide” (Journal of Enzyme Inhibition and Medicinal Chemistry, 2019)
